{
  "source": "DBAASP",
  "experiment_in_all_cases": "≥ marks a high value that may be exact or a test limit, other limits are often not marked, values filed in µg/mL are converted to µM",
  "key": {"[1]": {"system": "Candida tropicalis ATCC 13803"}, "Candida krusei ATCC 6258": {"system": "Candida krusei ATCC 6258"}, "[2]": {"system": "Candida parapsilosis ATCC 22019"}, "Candida albicans SC5314": {"system": "Candida albicans SC5314"}, "[3]": {"system": "Staphylococcus aureus ATCC 25923"}, "[4]": {"system": "Mycobacterium tuberculosis mc2-6230"}, "[5]": {"system": "Mycobacterium tuberculosis mc2-6020"}, "Klebsiella pneumoniae": {"system": "Klebsiella pneumoniae"}, "[6]": {"system": "Pseudomonas aeruginosa ATCC 27853"}, "[7]": {"system": "Streptococcus pneumoniae ATCC 49619"}, "Streptococcus agalactiae": {"system": "Streptococcus agalactiae"}, "[8]": {"system": "Escherichia coli ATCC 25922"}, "Streptococcus mutans": {"system": "Streptococcus mutans"}, "Streptococcus pyogenes": {"system": "Streptococcus pyogenes"}, "[9]": {"system": "Staphylococcus aureus ATCC 9144"}, "Saccharomyces cerevisiae": {"system": "Saccharomyces cerevisiae"}, "[10]": {"system": "Pseudomonas aeruginosa ATCC 15692"}, "[11]": {"system": "Candida albicans ATCC 10231"}, "Cladosporium sp.": {"system": "Cladosporium sp."}, "Aureobasidium pullulans": {"system": "Aureobasidium pullulans"}, "[12]": {"system": "Staphylococcus epidermidis ATCC 35984"}, "[13]": {"system": "Escherichia coli MC4100 NR698"}, "[14]": {"system": "Corynebacterium glutamicum ATCC 13032"}, "[15]": {"system": "Staphylococcus epidermidis 5179-R1"}, "[16]": {"system": "Bacillus subtilis ATCC 23857"}, "[17]": {"system": "Staphylococcus aureus NCTC 8530"}, "[18]": {"system": "Staphylococcus aureus ATCC 33592"}, "Bacillus subtilis PY79": {"system": "Bacillus subtilis PY79"}, "[19]": {"system": "Pseudomonas aeruginosa PA14"}, "[20]": {"system": "Escherichia coli DH5alpha"}, "[21]": {"system": "Pseudomonas aeruginosa PAO1"}, "[22]": {"system": "Staphylococcus aureus ATCC 6538P"}, "[23]": {"system": "Klebsiella pneumoniae ATCC 700603"}, "Listeria grayi DSM 20601": {"system": "Listeria grayi DSM 20601"}, "[24]": {"system": "Listeria monocytogenes DSM 20600"}, "Escherichia coli D31": {"system": "Escherichia coli D31"}, "[25]": {"system": "Listeria fleischmannii DSM 24998"}, "[26]": {"system": "Micrococcus luteus DSM 20030"}, "Bacillus subtilis": {"system": "Bacillus subtilis"}, "Bacillus megaterium": {"system": "Bacillus megaterium"}, "Neurospora crassa": {"system": "Neurospora crassa"}, "Fusarium culmorum": {"system": "Fusarium culmorum"}, "[27]": {"system": "Pectobacterium carotovorum"}, "Fusarium haematococcum": {"system": "Fusarium haematococcum"}, "Aerococcus viridans": {"system": "Aerococcus viridans"}, "Alternaria brassicicola": {"system": "Alternaria brassicicola"}, "Botrytis cinerea": {"system": "Botrytis cinerea"}, "Ascochyta pisi": {"system": "Ascochyta pisi"}, "Escherichia coli D22": {"system": "Escherichia coli D22"}, "Trichoderma viride": {"system": "Trichoderma viride"}, "Pediococcus acidilactici": {"system": "Pediococcus acidilactici"}, "Micrococcus luteus": {"system": "Micrococcus luteus"}, "Enterobacter cloacae": {"system": "Enterobacter cloacae"}},
  "data": [
    {"smiles": "NCCCC[C@H](NC(=O)[C@H](Cc1ccc(O)cc1)NC(=O)[C@H](CCCCN)NC(=O)[C@@H](N)CS)C(=O)N[C@@H](Cc1c[nH]c2ccccc12)C(=O)N[C@@H](CCCN=C(N)N)C(=O)O", "note": "[CKYKWR]", "values": [
      {"measurement": "MIC", "setting": "[1]", "result": "≥ 56.6", "unit": "µM"},
      {"measurement": "MIC", "setting": "Candida krusei ATCC 6258", "result": "≥ 113", "unit": "µM"},
      {"measurement": "MIC", "setting": "[2]", "result": "≥ 113", "unit": "µM"},
      {"measurement": "MIC", "setting": "Candida albicans SC5314", "result": "≥ 113", "unit": "µM"}
    ]},
    {"smiles": "CC[C@H](C)[C@H](N)C(=O)N[C@@H](CCCN=C(N)N)C(=O)N[C@@H](CCCCN)C(=O)N[C@@H](CC(C)C)C(=O)N[C@@H](CCCCN)C(=O)N[C@@H](CO)C(=O)N[C@@H](Cc1c[nH]c2ccccc12)C(=O)N[C@@H](CCCCN)C(=O)N[C@@H](Cc1c[nH]c2ccccc12)C(=O)N[C@@H](CC(C)C)C(=O)N[C@@H](CCCN=C(N)N)C(=O)N[C@@H](Cc1c[nH]c2ccccc12)C(=O)N[C@@H](CC(C)C)C(=O)O", "note": "[IRKLKSWKWLRWL]", "values": [
      {"measurement": "MIC", "setting": "[3]", "result": 32, "unit": "µM"},
      {"measurement": "MIC", "setting": "[4]", "result": "≥ 68", "unit": "µM"},
      {"measurement": "MIC", "setting": "[5]", "result": 16, "unit": "µM"},
      {"measurement": "MIC", "setting": "Klebsiella pneumoniae", "result": 136, "unit": "µM"},
      {"measurement": "MIC", "setting": "[6]", "result": 68, "unit": "µM"},
      {"measurement": "MIC", "setting": "[7]", "result": "≥ 32", "unit": "µM"},
      {"measurement": "MIC", "setting": "Streptococcus agalactiae", "result": "≥ 32", "unit": "µM"},
      {"measurement": "MIC", "setting": "[8]", "result": 16, "unit": "µM"},
      {"measurement": "MIC", "setting": "Streptococcus mutans", "result": 8, "unit": "µM"},
      {"measurement": "MIC", "setting": "Streptococcus pyogenes", "result": 4, "unit": "µM"}
    ]},
    {"smiles": "CC[C@H](C)[C@H](NC(=O)[C@@H](N)CC(=O)O)C(=O)NCC(=O)N[C@@H](CCCCN)C(=O)N[C@@H](Cc1ccc(O)cc1)C(=O)N[C@@H](CS)C(=O)NCC(=O)N[C@@H](Cc1ccc(O)cc1)C(=O)N[C@@H](C)C(=O)N[C@@H](Cc1cnc[nH]1)C(=O)N[C@@H](C)C(=O)N[C@@H](CC(C)C)C(=O)N[C@@H](CC(N)=O)C(N)=O", "note": "[DIGKYCGYAHALN]", "values": [
      {"measurement": "MIC", "setting": "[9]", "result": "≥ 100", "unit": "µM"},
      {"measurement": "MIC", "setting": "Saccharomyces cerevisiae", "result": "≥ 100", "unit": "µM"},
      {"measurement": "MIC", "setting": "[10]", "result": "≥ 100", "unit": "µM"},
      {"measurement": "MIC", "setting": "[11]", "result": "> 100", "unit": "µM"},
      {"measurement": "MIC", "setting": "Cladosporium sp.", "result": "≥ 100", "unit": "µM"},
      {"measurement": "MIC", "setting": "Aureobasidium pullulans", "result": "≥ 100", "unit": "µM"},
      {"measurement": "MIC", "setting": "[12]", "result": "≥ 100", "unit": "µM"},
      {"measurement": "MIC", "setting": "[6]", "result": "> 100", "unit": "µM"},
      {"measurement": "MIC", "setting": "[13]", "result": "≥ 100", "unit": "µM"},
      {"measurement": "MIC", "setting": "[14]", "result": "≥ 100", "unit": "µM"},
      {"measurement": "MIC", "setting": "[15]", "result": "≥ 100", "unit": "µM"},
      {"measurement": "MIC", "setting": "[8]", "result": "> 100", "unit": "µM"},
      {"measurement": "MIC", "setting": "[16]", "result": "≥ 100", "unit": "µM"}
    ]},
    {"smiles": "CC[C@H](C)[C@H](NC(=O)[C@H](Cc1ccccc1)NC(=O)[C@H](CC(C)C)NC(=O)[C@H](CCCN=C(N)N)NC(=O)[C@@H](NC(=O)[C@H](CCCCN)NC(=O)[C@@H](NC(=O)[C@H](CC(C)C)NC(=O)[C@@H](N)C(C)C)[C@@H](C)CC)[C@@H](C)O)C(=O)N[C@@H](CCCCN)C(=O)N[C@@H](CCCN=C(N)N)C(=O)N[C@@H](CCCCN)C(=O)O", "note": "[VLIKTRLFIKRK]", "values": [
      {"measurement": "MIC", "setting": "[17]", "result": 8, "unit": "µM"},
      {"measurement": "MIC", "setting": "[18]", "result": 4, "unit": "µM"},
      {"measurement": "MIC", "setting": "[6]", "result": 8, "unit": "µM"}
    ]},
    {"smiles": "CC(C)C[C@H](NC(=O)[C@H](CCCN=C(N)N)NC(=O)[C@@H](NC(=O)[C@H](CCCN=C(N)N)NC(=O)[C@@H](N)CC(C)C)C(C)C)C(=O)N[C@@H](C)C(=O)N[C@@H](CO)C(=O)N[C@@H](Cc1cnc[nH]1)C(=O)N[C@@H](CC(C)C)C(=O)N[C@@H](CCCN=C(N)N)C(=O)N[C@@H](CCCCN)C(=O)N[C@@H](CC(C)C)C(=O)N[C@@H](CCCN=C(N)N)C(=O)N[C@@H](CCCCN)C(=O)N[C@@H](CCCN=C(N)N)C(=O)N[C@@H](CC(C)C)C(=O)N[C@@H](CC(C)C)C(=O)N[C@@H](CCCN=C(N)N)C(=O)O", "note": "[LRVRLASHLRKLRKRLLR]", "values": [
      {"measurement": "MIC", "setting": "Bacillus subtilis PY79", "result": 25, "unit": "µM"},
      {"measurement": "MIC", "setting": "[19]", "result": "≥ 50", "unit": "µM"},
      {"measurement": "MIC", "setting": "[20]", "result": 12.5, "unit": "µM"},
      {"measurement": "MIC", "setting": "[21]", "result": 25, "unit": "µM"},
      {"measurement": "MIC", "setting": "[22]", "result": 3.12, "unit": "µM"},
      {"measurement": "MIC", "setting": "[23]", "result": 6.25, "unit": "µM"},
      {"measurement": "MIC", "setting": "[8]", "result": 6.25, "unit": "µM"}
    ]},
    {"smiles": "CC[C@H](C)[C@H](N)C(=O)N[C@@H](Cc1ccccc1)C(=O)NCC(=O)N[C@@H](C)C(=O)N[C@H](C(=O)N[C@@H](Cc1c[nH]c2ccccc12)C(=O)N[C@@H](CO)C(=O)NCC(=O)N[C@H](C(=O)N[C@@H](CCCCN)C(=O)N[C@@H](CO)C(=O)N[C@@H](CC(C)C)C(=O)N[C@@H](Cc1ccccc1)C(N)=O)[C@@H](C)CC)[C@@H](C)CC", "note": "[IFGAIWSGIKSLF]", "values": [
      {"measurement": "MIC", "setting": "Listeria grayi DSM 20601", "result": 8, "unit": "µM"},
      {"measurement": "MIC", "setting": "[24]", "result": 4, "unit": "µM"},
      {"measurement": "MIC", "setting": "Escherichia coli D31", "result": 8, "unit": "µM"},
      {"measurement": "MIC", "setting": "[25]", "result": 4, "unit": "µM"},
      {"measurement": "MIC", "setting": "[26]", "result": 4, "unit": "µM"}
    ]},
    {"smiles": "CC[C@H](C)[C@H](NC(=O)[C@@H](NC(=O)[C@@H]1CCCN1C(=O)[C@@H](N)C(C)C)[C@@H](C)CC)C(=O)N[C@@H](Cc1ccc(O)cc1)C(=O)N[C@H]1CSSC[C@@H](C(=O)N[C@@H](CCC(N)=O)C(=O)N[C@@H](CCCN=C(N)N)C(=O)N[C@@H](CCSC)C(=O)O)NC(=O)[C@H](CCCCN)NC(=O)CNC(=O)[C@H]([C@@H](C)O)NC(=O)[C@H](CCCN=C(N)N)NC(=O)[C@H](CCCN=C(N)N)NC(=O)[C@H](CC(N)=O)NC1=O", "note": "[VPIIYCNRRTGKCQRM]", "values": [
      {"measurement": "MIC", "setting": "Bacillus subtilis", "result": 28.3, "unit": "µM"},
      {"measurement": "MIC", "setting": "Bacillus megaterium", "result": 7.07, "unit": "µM"},
      {"measurement": "MIC", "setting": "Neurospora crassa", "result": 14.1, "unit": "µM"},
      {"measurement": "MIC", "setting": "Fusarium culmorum", "result": 14.1, "unit": "µM"},
      {"measurement": "MIC", "setting": "[27]", "result": 28.3, "unit": "µM"},
      {"measurement": "MIC", "setting": "Fusarium haematococcum", "result": 7.07, "unit": "µM"},
      {"measurement": "MIC", "setting": "Aerococcus viridans", "result": 1.73, "unit": "µM"},
      {"measurement": "MIC", "setting": "Alternaria brassicicola", "result": 7.07, "unit": "µM"},
      {"measurement": "MIC", "setting": "Botrytis cinerea", "result": 14.1, "unit": "µM"},
      {"measurement": "MIC", "setting": "Escherichia coli D31", "result": 0.849, "unit": "µM"},
      {"measurement": "MIC", "setting": "Klebsiella pneumoniae", "result": 3.54, "unit": "µM"},
      {"measurement": "MIC", "setting": "Ascochyta pisi", "result": 28.3, "unit": "µM"},
      {"measurement": "MIC", "setting": "Escherichia coli D22", "result": 0.849, "unit": "µM"},
      {"measurement": "MIC", "setting": "Trichoderma viride", "result": 28.3, "unit": "µM"},
      {"measurement": "MIC", "setting": "Pediococcus acidilactici", "result": 28.3, "unit": "µM"},
      {"measurement": "MIC", "setting": "Micrococcus luteus", "result": 3.54, "unit": "µM"},
      {"measurement": "MIC", "setting": "Enterobacter cloacae", "result": 7.07, "unit": "µM"}
    ]}
  ]
}
